# Reference: US20240391965A1, “STAPLED ANTIMICROBIAL PEPTIDES (STAMPS) AND USES THEREOF” (Lytica Therapeutics, Inc., priority 2021, published 2024)
# Starred links: 1 amine or outer side, 2 acyl side, 3 side chain; linkers in the order of their positions; H or OH if unused. Positions of bridges follow the written chain, without caps; N, C: chain ends. Residues, ends and D or L forms follow the SMILES beside them. 2,2'Bipyridine(5,5'-diCH2) = c1cc(-c2ccc(C[*:2])cn2)ncc1C[*:1]
# How the values were obtained:
# [1] = 48 hours cytotoxicity assay (CellTiter-Glo), liver toxicity; type: cell-based, human; details: 48 hours of incubation, CellTiter-Glo; read-out: Inhibitory Concentration at 50% Cytotoxicity (IC50) Human Liver Cells (HepG2)
# In short: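 HepG2 cells in EMEM with 10% FBS, allowed to attach 4 h, then exposed to serially diluted StAMPs or vehicle for 48 h at 37 °C. Viability read by CellTiter-Glo luminescence.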
# [2] = tested on: Pseudomonas aeruginosa (P. aeruginosa); type: cell-based; details: microbroth dilution, 20-24 hours at 37° C.
# In short: (§1)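 MIC by broth microdilution adapted from CLSI, in Mueller-Hinton broth or cation-adjusted MHB II, at a final inoculum of 5×10^5 CFU/ml. Overnight cultures were diluted and regrown 3-4 h before use. Serially diluted peptide was incubated 20-24 h at 37° C, and MIC was the lowest concentration showing no visible growth.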
# [3] = tested on: Staphylococcus aureus (S. aureus); type: cell-based; details: microbroth dilution, 20-24 hours at 37° C.
# In short: as §1
# [4] = tested on: Acinetobacter baumannii (A. baumannii); type: cell-based; details: microbroth dilution, 20-24 hours at 37° C.
# In short: as §1
# [5] = tested on: Escherichia coli (E. coli); type: cell-based; details: microbroth dilution, 20-24 hours at 37° C.
# In short: as §1
# [6] = tested on: Klebsiella pneumoniae (K. pneumoniae); type: cell-based; details: microbroth dilution, 20-24 hours at 37° C.
# In short: as §1
# [7] = 90 minute cytotoxicity assay (LDH release), renal toxicity; type: cell-based; details: 90 minutes of incubation, LDH release; read-out: Inhibitory Concentration at 50% Cytotoxicity (IC50) Human Renal Proximal Tubule Epithelial Cells (RPTEC)
# In short: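 RPTEC plated overnight, given fresh medium, then exposed to serial peptide dilutions or vehicle for 90 min at 37° C. Medium LDH measured by 10 min reagent incubation and absorbance at 490 nm.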
smiles,measurement,setting,value
"CC[C@H](C)[C@H](NC(=O)CN)C(=O)N[C@@H](Cc1ccccc1)C(=O)N[C@@H](CO)C(=O)N[C@@H](CCCCN)C(=O)N[C@@H](CC(C)C)C(=O)N[C@H]1CSCc2ccc(nc2)-c2ccc(cn2)CSC[C@@H](C(=O)N[C@@H](CC(C)C)C(=O)N[C@H](C(=O)N[C@@H](CO)C(=O)NCC(=O)N[C@@H](CC(C)C)C(=O)N[C@@H](CCCCN)C(=O)NCC(N)=O)[C@@H](C)CC)NC(=O)[C@H](CC(N)=O)NC(=O)[C@H](CCCCN)NC(=O)[C@H]([C@@H](C)CC)NC(=O)[C@H](CCCCN)NC(=O)[C@H](CCCCN)NC(=O)CNC1=O [compound 89] (H-GIFSKLCGKKIKNCLISGLKG-NH2; linker 7-14 via 2,2'Bipyridine(5,5'-diCH2))",IC50,[1],62 µg/mL
same,Minimum Inhibitory Concentration (MIC) P. aeruginosa,[2],32 µg/mL
same,Minimum Inhibitory Concentration (MIC) S. aureus,[3],>64 µg/mL
same,Minimum Inhibitory Concentration (MIC) A. baumannii,[4],4 µg/mL
same,Minimum Inhibitory Concentration (MIC) E. coli,[5],4 µg/mL
same,Minimum Inhibitory Concentration (MIC) K. pneumoniae,[6],16 µg/mL
same,IC50,[7],80 µg/mL
